Each structure is given as a SMILES string. Read-outs that look alike come from different tables or passages of the source. *1 amine or outer side, *2 acyl side, *3 side chain or, on linkers, in order; H or OH if unused. Where a SMILES comes first, the peptide text is derived from it. Bridges are numbered along the chain shown (N, C = ends). [ ]: non-standard residue; d: D form. hAad = O=C([C@H](CCCCC(=O)[*:3])N[*:1])[*:2]; X7 = O=C(C[C@H](CCCN[*:3])N[*:2])[*:1]; 2Nal = N[C@@H](Cc1ccc2ccccc2c1)C(=O)O; AEF = NCCOc1ccc(C[C@H](N)C(=O)O)cc1; 3Pal = N[C@@H](Cc1cccnc1)C(=O)O; Aad = N[C@@H](CCCC(=O)O)C(=O)O; αMeL = CC(C)C[C@](C)(N)C(=O)O; dOrn = NCCC[C@@H](N)C(=O)O; dDab = NCC[C@@H](N)C(=O)O; Dab = NCC[C@H](N)C(=O)O

Assay [1] deals with IL-23 mediated signalling (Homo sapiens, UniProt Q5VWK5). Briefly: Functional inhibition of IL-23 mediated STAT3 signalling (phospho-STAT3 MSD) in DB cells. The note with it: for Emax: read-out: hIL-23 (pSTAT3) antagonist % inhibition. It is filed as cell-based. From the text: Upon binding of IL-23, the IL-23R forms a heterodimer signalling complex together with IL-12R β1, which through the JAK2/STAT3 pathway promotes phosphorylation of STAT3 to form phospho-STAT3.
For compounds tested in this assay, the response was normalized relative to control values to calculate the IC50 and maximal inhibitory response from a concentration response curve of the compound in presence of a fixed concentration of human IL-23.
The assay procedure was as follows. […] Following preincubation of the DB cells with inhibitor for 15 min in a cell incubator (37 °C, 5% CO2), 20 µL of the prepared 3X the EC80 of hIL-23 solution was added to each well and incubated for 90 min in a cell incubator (37 °C, 5% CO2). For some wells buffer only or IL-23 only corresponding to the EC80 was added to obtain readouts needed for normalization. To terminate the assay, the plate was spun at 1000 G for 5 min to pellet cells, the supernatant removed using an 8-channel manual pipette, and then added 50 µL/well Complete Lysis Buffer from the MSD STAT3 kit (Cat# K150SVD, Mesoscale) to the cell pellet. To completely lyse cells to release phospho-STAT3 for detection, the plate was shaken for 10 min at room temperature (500 rpm) sealed with aluminium foil and placed at -80 °C for a minimum of 15 min. Detection of the phospho-STAT3 level in the cell lysate from the individual wells was determined using the MSD STAT3 kit (Cat# K150SVD, Mesoscale) and read on a Meso QuickPlex SQ 120 plate reader (Mesoscale).
For data analysis raw data counts from the Meso QuickPlex SQ 120 plate reader were normalized relative to the response by the EC80 of h1L-23 alone (no compound added) and the buffer level. Compound potency (IC50) and maximal inhibitory response (% inhibition) were estimated by computer-aided curve fitting using a 4-parameter logistic (4PL) nonlinear model. […] Table 3-2: hIL-23 (pSTAT3) antagonist IC50 and % inhibition

Assay [2] has as its target T1, human IL-23R (Homo sapiens, UniProt Q5VWK5).
T1 sequence (Q5VWK5 22-629): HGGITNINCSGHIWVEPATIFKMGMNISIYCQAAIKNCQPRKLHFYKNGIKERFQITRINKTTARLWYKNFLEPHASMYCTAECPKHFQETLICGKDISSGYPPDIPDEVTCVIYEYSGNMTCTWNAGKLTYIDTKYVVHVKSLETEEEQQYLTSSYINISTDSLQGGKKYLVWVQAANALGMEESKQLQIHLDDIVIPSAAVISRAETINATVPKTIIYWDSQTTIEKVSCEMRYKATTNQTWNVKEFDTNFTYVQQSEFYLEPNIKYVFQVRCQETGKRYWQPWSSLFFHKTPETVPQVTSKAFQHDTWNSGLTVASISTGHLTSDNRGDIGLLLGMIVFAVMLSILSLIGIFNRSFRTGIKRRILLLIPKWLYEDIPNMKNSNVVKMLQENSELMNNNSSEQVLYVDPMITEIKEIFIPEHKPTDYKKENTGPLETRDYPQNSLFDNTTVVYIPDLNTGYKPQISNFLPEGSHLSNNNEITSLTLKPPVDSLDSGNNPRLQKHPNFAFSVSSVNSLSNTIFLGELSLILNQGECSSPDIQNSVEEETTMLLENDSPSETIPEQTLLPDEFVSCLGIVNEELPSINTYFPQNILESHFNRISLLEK
Briefly: biochemical. The note with it: for Emax: read-out: % displacement (hIL-23R NIuc). The method, boiled down:
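Membranes from HEK293 cells stably expressing Nluc-tagged human IL-23R were incubated 2 h at room temperature with test compound and a fluorophore-labelled tracer. After substrate addition, loss of BRET (TAMRA over luciferase emission) reported tracer displacement. A 4PL fit gave IC50 values.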

Where [3] appears, read: Table 3-2, maximal inhibitory response, DB cells, hIL-23 at EC80.
Setting [4] is: Table 3-2, DB cells, hIL-23 at EC80, read-out: hIL-23 (pSTAT3) antagonist IC50.

Turning to `CC(C)C[C@]1(C)NC(=O)[C@H](Cc2c[nH]c3ccccc23)NC(=O)[C@H](Cc2c[nH]c3ccccc23)NC(=O)[C@@H]2CSCC(=O)CSC[C@H](NC(=O)[C@H]([C@@H](C)O)NC(=O)[C@@H](NC(=O)CN)CSCC(=O)CSC[C@@H](C(=O)N[C@@H](CO)C(N)=O)NC1=O)C(=O)N[C@@H](Cc1c[nH]c3ccccc13)C(=O)N[C@@H](CCC(=O)O)C(=O)N2` (single isomer, unassigned) [I5 (isomer 3), H-GC(1a)TC(2a)WEC(2a)WW[2-Me-Leu]C(1a)S-[NH2], reference compound], the Emax in assay [1] (DB) turned out to be 91%. Besides, the concentration for half-maximal inhibition (IC50) – broadly, the midpoint of a concentration-inhibition curve – in assay [2] amounted to 90 nM.
For the molecule `CC(C)C[C@]1(C)NC(=O)[C@H](Cc2ccc3ccccc3c2)NC(=O)[C@H](Cc2ccc(OCCN)cc2)NC(=O)[C@@H]2CCC(=O)N[C@@H](CCCCNC(=O)CC[C@@H](C(=O)N[C@@H](CCN)C(=O)N[C@@H](Cc3cccnc3)C(N)=O)NC1=O)C(=O)N[C@@H]([C@@H](C)O)C(=O)N[C@@H](C(C)C)C(=O)N[C@@H](Cc1c[nH]c3ccccc13)C(=O)N[C@@H](CCC(N)=O)C(=O)N2` [Compound 2, K(1c)(6c)^†TVWQE(6c)[Y(2-aminoethoxy)][2-Nal][2-Me-Leu]E(1c)[Dab][3-(3-Pyridyl)-Ala]-[NH2]] (KTVWQE[AEF][2Nal][αMeL]E[Dab][3Pal]-NH2; lactam 1-10, N-6), the half-inhibitory concentration (IC50) was determined as 0.11 nM in assay [1] (SAR tables 2-1 to 2-7, DB cells, hIL-23 at EC80, read-out: IC50 (pSTAT3)) and 0.021 nM in assay [2]. Also, the Emax in assay [1] (setting [3]) was determined as 99%; in assay [2], 100%.
For `CC(C)C[C@]1(C)NC(=O)[C@H](Cc2ccc3ccccc3c2)NC(=O)[C@H](Cc2ccc(OCCN)cc2)NC(=O)[C@@H]2CC(=O)N[C@H](CCCCNC(=O)CC[C@@H](C(=O)N[C@@H](CCN)C(=O)N[C@@H](Cc3cccnc3)C(N)=O)NC1=O)C(=O)N[C@@H]([C@@H](C)O)C(=O)N[C@@H](C(C)C)C(=O)N[C@@H](Cc1c[nH]c3ccccc13)C(=O)N[C@@H](CCC(N)=O)C(=O)N2` [Compound 3, [{d}K](1c)(6c)^†TVWQD(6c)[Y(2-aminoethoxy)][2-Nal][2-Me-Leu]E(1c)[Dab][3-(3-Pyridyl)-Ala]-[NH2]] ([dK]TVWQD[AEF][2Nal][αMeL]E[Dab][3Pal]-NH2; lactam 1-10, N-6), the IC50 is 1.5 nM in assay [1] (setting [4]) and 0.091 nM in assay [2]. In addition, the Emax in assay [1] (setting [3]) was 101%; in assay [2], 105%.
As to `CC(C)C[C@]1(C)NC(=O)[C@H](Cc2ccc3ccccc3c2)NC(=O)[C@H](Cc2ccc(OCCN)cc2)NC(=O)[C@@H]2CCC(=O)N[C@H](CCCNC(=O)CCC[C@@H](C(=O)N[C@@H](CCN)C(=O)N[C@@H](Cc3cccnc3)C(N)=O)NC1=O)C(=O)N[C@@H]([C@@H](C)O)C(=O)N[C@@H](C(C)C)C(=O)N[C@@H](Cc1c[nH]c3ccccc13)C(=O)N[C@@H](CCC(N)=O)C(=O)N2` [Compound 6, [{d}Orn](1c)(6c)^†TVWQE(6c)[Y(2-aminoethoxy)][2-Nal][2-Me-Leu][hGlu](1c)[Dab][3-(3-Pyridyl)-Ala]-[NH2]] ([dOrn]TVWQE[AEF][2Nal][αMeL][Aad][Dab][3Pal]-NH2; lactam 1-10, N-6), in assay [1] (setting [3]), the Emax worked out at 104%. In assay [2], the “% displacement (hIL-23R NIuc)” value worked out at 104% and the concentration for half-maximal inhibition (IC50) worked out at 0.022 nM.
As to `CC(C)C[C@]1(C)NC(=O)[C@H](Cc2ccc3ccccc3c2)NC(=O)[C@H](Cc2ccc(OCCN)cc2)NC(=O)[C@@H]2CCC(=O)N[C@H](CCNC(=O)CCCC[C@@H](C(=O)N[C@@H](CCN)C(=O)N[C@@H](Cc3cccnc3)C(N)=O)NC1=O)C(=O)N[C@@H]([C@@H](C)O)C(=O)N[C@@H](C(C)C)C(=O)N[C@@H](Cc1c[nH]c3ccccc13)C(=O)N[C@@H](CCC(N)=O)C(=O)N2` [Compound 7, [{d}Dab](1c)(6c)^†TVWQE(6c)[Y(2-aminoethoxy)][2-Nal][2-Me-Leu][2-Amino-6-carboxyhexanoyl](1 c)[Dab][3-(3-Pyridyl)-Ala]-[NH2]] ([dDab]TVWQE[AEF][2Nal][αMeL][hAad][Dab][3Pal]-NH2; lactam 1-10, N-6), in assay [1] (setting [3]), the Emax worked out at 99%. Besides, in assay [2], the “% displacement (hIL-23R NIuc)” value was 104% and the IC50 is 0.017 nM.
On to `CC(C)C[C@]1(C)NC(=O)[C@H](Cc2ccc3ccccc3c2)NC(=O)[C@H](Cc2ccc(OCCN)cc2)NC(=O)[C@@H]2CCC(=O)N[C@@H](CCCNC(=O)CC[C@@H](C(=O)N[C@@H](CCN)C(=O)N[C@@H](Cc3cccnc3)C(N)=O)NC1=O)CC(=O)N[C@@H]([C@@H](C)O)C(=O)N[C@@H](C(C)C)C(=O)N[C@@H](Cc1c[nH]c3ccccc13)C(=O)N[C@@H](CCC(N)=O)C(=O)N2` [Compound 12, [bLys](1c)(6c)^†TVWQE(6c)[Y(2-aminoethoxy)][2-Nal][2-Me-Leu]E(1c)[Dab][3-(3-Pyridyl)-Ala]-[NH2]] (TVWQE[AEF][2Nal][αMeL]E[Dab][3Pal]-NH2; linker N-5-9 via X7), for which, in assay [1] (setting [3]), the Emax was determined as 100%. In addition, the “% displacement (hIL-23R NIuc)” value in assay [2] came out at 104%.
On to `CC[C@H](C)[C@@H]1NC(=O)[C@@H]2CCCCNC(=O)CC[C@@H](C(=O)N[C@@H](CCN)C(=O)N[C@@H](Cc3cccnc3)C(N)=O)NC(=O)C(C)(C)NC(=O)[C@H](Cc3ccc4ccccc4c3)NC(=O)[C@H](Cc3ccc(C)cc3)NC(=O)[C@H](CCC(=O)N2)NC(=O)[C@H](CCC(N)=O)NC(=O)[C@H](Cc2c[nH]c3ccccc23)NC(=O)[C@H](C(C)C)NC1=O` [Compound 17, K(1c)(6c)^†IVWQE(6c)[F(4-Me)][2-Nal][Aib]E(1c)[Dab][3-(3-Pyridyl)-Ala]-[NH2]], for which the half-maximal inhibitory concentration (IC50) in assay [1] (setting [4]) was 2.9 nM. Further, the Emax in assay [1] (setting [3]) stood at 99%; in assay [2] it was 107%.
Regarding `CNC(=O)[C@H](Cc1cccnc1)NC(=O)[C@H](CCN)NC(=O)[C@@H]1CCC(=O)NCCCC[C@@H]2NC(=O)CC[C@H](NC(=O)[C@H](CCC(N)=O)NC(=O)[C@H](Cc3c[nH]c4ccccc34)NC(=O)[C@H]([C@@H](C)O)NC2=O)C(=O)N[C@@H](Cc2ccc(OCCN)cc2)C(=O)N[C@@H](Cc2ccc3ccccc3c2)C(=O)N[C@@](C)(CC(C)C)C(=O)N1` [Compound 36, K(1c)(6c)^†TWQE(6c)[Y(2-aminoethoxy)][2-Nal][2-Me-Leu]E(1c)[Dab][3-(3-Pyridyl)-Ala]-[NHMe]] (KTWQE[AEF][2Nal][αMeL]E[Dab][3Pal]-NHMe; lactam 1-9, N-5), in assay [1] (setting [3]), the Emax turned out to be 97%. Further, in assay [2], it took 0.29 nM to reach half-maximal inhibition (IC50) and the Emax amounted to 100%.
Turning to `CNC(=O)[C@H](Cc1cccnc1)NC(=O)[C@H](CCN)NC(=O)[C@@H]1CCCCNC(=O)CC[C@@H]2NC(=O)CC[C@H](NC(=O)[C@H](CCC(N)=O)NC(=O)[C@H](Cc3c[nH]c4ccccc34)NC(=O)[C@H]([C@@H](C)O)NC2=O)C(=O)N[C@@H](Cc2ccc(OCCN)cc2)C(=O)N[C@@H](Cc2ccc3ccccc3c2)C(=O)N[C@@](C)(CC(C)C)C(=O)N1` [Compound 39, E(1c)(6c)^†TWQE(6c)[Y(2-aminoethoxy)][2-Nal][2-Me-Leu]K(1c)[Dab][3-(3-Pyridyl)-Ala]-[NHMe]] (ETWQE[AEF][2Nal][αMeL]K[Dab][3Pal]-NHMe; lactam 1-9, N-5), in assay [1] (setting [3]), the Emax turned out to be 99%. Moreover, in assay [2], the “% displacement (hIL-23R NIuc)” value came out at 98% and half-maximal inhibition (IC50) was put at 0.64 nM.

The record behind these values is patent EP4471048A1, “PEPTIDE INHIBITORS OF INTERLEUKIN-23 RECEPTOR” (Zealand Pharma A/S, priority 2023, dated 2024).
